ChEMBL document CHEMBL1770089, “Synthesis, structure-activity relationship of novel substituted 4H-chromen-1,2,3,4-tetrahydropyrimidine-5-carboxylates as potential anti-mycobacterial and anticancer agents” (2011)
In brackets after ≈: the same amount, converted by molar mass. Activity calls are given as the source filed them. The rule behind the calls is not given here.

Columns and labels:
Assay type in all cases: functional
[1] = test system: HeLa; experiment: Cytotoxicity against human HeLa cells after 48 hrs by MTT assay; design: concentration or dose not given beside the values
[2] = test system: SK-N-SH; experiment: Cytotoxicity against human SK-N-SH cells after 48 hrs by MTT assay; design: concentration or dose not given beside the values
[3] = test system: Mycobacterium tuberculosis; experiment: Antituberculosis activity against Mycobacterium tuberculosis H37Rv by agar dilution method
[4] = test system: A549; experiment: Cytotoxicity against human A549 cells after 48 hrs by MTT assay; design: concentration or dose not given beside the values

SMILES | Activity [1] | Activity [2] | MIC [3] [µM] | Activity [4]
CCOC(=O)C1=C(c2ccccc2)NC(=O)NC1c1coc2ccc(C)cc2c1=O (stereo not given) | 29.8% | inactive | 30.9 (≈ 12.5 µg/mL) | 18.6%
CCOC(=O)C1=C(C(F)(F)F)NC(=O)NC1c1coc2cc3occc3cc2c1=O (stereo not given) | 40.9% | 6.9% | 7.38 (≈ 3.12 µg/mL) | 21.8%
CCOC(=O)C1=C(C)NC(=O)NC1c1coc2ccc(C)cc2c1=O (stereo not given) | 16.6% | 1.7% | 36.5 (≈ 12.5 µg/mL) | 24.8%
CCOC(=O)C1=C(C)NC(=O)NC1c1coc2cc3occc3cc2c1=O (stereo not given) | 51.5% | 37.5% | 34 (≈ 12.5 µg/mL) | 29.6%
COCCOC(=O)C1=C(C)NC(=O)NC1c1coc2c(ccc3occc32)c1=O (stereo not given) | 61.2% | 8.4% | 31.4 (≈ 12.5 µg/mL) | 4.5%
CCOC(=O)C1=C(c2ccccc2)NC(=O)NC1c1coc2c(ccc3occc32)c1=O (stereo not given) | 43.3% | 39.4% | 14.5 (≈ 6.25 µg/mL) | 33.3%
CC[C@@H](CO)NCCN[C@@H](CC)CO [ETHAMBUTOL] | – | – | 7.63 (≈ 1.56 µg/mL) | –
CCOC(=O)C1=C(C)NC(=S)NC1c1coc2ccc(C)cc2c1=O (stereo not given) | 43.2% | 7% | 34.9 (≈ 12.5 µg/mL) | 18.3%
O=C(O)c1cn(C2CC2)c2cc(N3CCNCC3)c(F)cc2c1=O [CIPROFLOXACIN] | – | – | 9.44 (≈ 3.13 µg/mL) | –
CCOC(=O)C1=C(c2ccccc2)NC(=S)NC1c1coc2ccccc2c1=O (stereo not given) | 33% | 1.9% | 61.6 (≈ 25 µg/mL) | 9.4%
NNC(=O)c1ccncc1 [ISONIAZID] | – | – | 0.66 (≈ 0.0905 µg/mL) | –
COCCOC(=O)C1=C(C)NC(=O)NC1c1coc2cc3occc3cc2c1=O (stereo not given) | 37.6% | 34.7% | 31.4 (≈ 12.5 µg/mL) | 34.7%
COc1cccc2c1C(=O)c1c(O)c3c(c(O)c1C2=O)C[C@@](O)(C(=O)CO)C[C@@H]3O[C@H]1C[C@H](N)[C@H](O)[C@H](C)O1 [DOXORUBICIN] | 86.5% | 31.8% | – | 55%
COCCOC(=O)C1=C(C)NC(=O)NC1c1coc2ccc(-c3ccccc3)cc2c1=O (stereo not given) | 33.5% | 13.4% | 57.6 (≈ 25 µg/mL) | 34.4%
CCOC(=O)C1=C(C)NC(=O)NC1c1coc2ccc([N+](=O)[O-])cc2c1=O (stereo not given) | 54.4% | 28.7% | 4.18 (≈ 1.56 µg/mL) | inactive
CCOC(=O)C1=C(C)NC(=S)NC1c1coc2ccc(-c3ccccc3)cc2c1=O (stereo not given) | 40.9% | 25.4% | 59.5 (≈ 25 µg/mL) | 37.4%
CCOC(=O)C1=C(CCl)NC(=O)NC1c1coc2ccccc2c1=O (stereo not given) | 23.3% | 18.6% | 34.5 (≈ 12.5 µg/mL) | 30.7%
COCCOC(=O)C1=C(C)NC(=O)NC1c1coc2ccc(C)cc2c1=O (stereo not given) | 40.2% | 35.6% | 34.1 (≈ 12.7 µg/mL) | 28.4%
CCOC(=O)C1=C(CCl)NC(=O)NC1c1coc2ccc(C)cc2c1=O (stereo not given) | 81.4% | 55.3% | 16.6 (≈ 6.26 µg/mL) | 46.2%
CCOC(=O)C1=C(c2ccccc2)NC(=O)NC1c1coc2ccc(-c3ccccc3)cc2c1=O (stereo not given) | inactive | inactive | 25.9 (≈ 12.1 µg/mL) | inactive

SMILES | Activity [1] | Activity [2] | MIC [3] [µM] | Activity [4]
CCOC(=O)C1=C(C)NC(=O)NC1c1coc2c(ccc3occc32)c1=O (stereo not given) | 42.4% | inactive | 34 (≈ 12.5 µg/mL) | 33.8%
CCOC(=O)C1=C(C)NC(=O)NC1c1coc2ccc(Br)cc2c1=O (stereo not given) | 32.8% | 31.1% | 30.8 (≈ 12.5 µg/mL) | 51.4%
CCOC(=O)C1=C(C)NC(=O)NC1c1coc2ccc(-c3ccccc3)cc2c1=O (stereo not given) | 45.3% | inactive | 30.7 (≈ 12.4 µg/mL) | 7.2%
CCOC(=O)C1=C(c2ccccc2)NC(=O)NC1c1coc2cc3occc3cc2c1=O (stereo not given) | 59.1% | inactive | 14.5 (≈ 6.25 µg/mL) | 13.1%
CCOC(=O)C1=C(c2ccccc2)NC(=S)NC1c1coc2ccc(C)cc2c1=O (stereo not given) | 31.5% | 12.1% | 14.9 (≈ 6.26 µg/mL) | 27.2%
CCOC(=O)C1=C(C(F)(F)F)NC(=O)NC1c1coc2cccc(C)c2c1=O (stereo not given) | 61.3% | 35.9% | 3.91 (≈ 1.55 µg/mL) | 22%
CCOC(=O)C1=C(C)NC(=O)NC1c1coc2ccccc2c1=O (stereo not given) | 16.6% | 19% | 76.2 (≈ 25 µg/mL) | 18.1%
COCCOC(=O)C1=C(C)NC(=S)NC1c1coc2ccccc2c1=O (stereo not given) | inactive | inactive | 66.8 (≈ 25 µg/mL) | inactive
COCCOC(=O)C1=C(C)NC(=S)NC1c1coc2ccc(C)cc2c1=O (stereo not given) | 17.4% | 22.8% | 32.2 (≈ 12.5 µg/mL) | 21.2%
COCCOC(=O)C1=C(C)NC(=O)NC1c1coc2ccc(Br)cc2c1=O (stereo not given) | 40.2% | 38.4% | 28.7 (≈ 12.5 µg/mL) | 29.9%
CCOC(=O)C1=C(C(F)(F)F)NC(=O)NC1c1coc2c(ccc3occc32)c1=O (stereo not given) | 32.8% | 34.3% | 3.67 (≈ 1.55 µg/mL) | 27.5%
COCCOC(=O)C1=C(C)NC(=O)NC1c1coc2ccccc2c1=O (stereo not given) | 38.5% | 23.9% | 69.8 (≈ 25 µg/mL) | 23.5%
CCOC(=O)C1=C(C)NC(=O)NC1c1coc2c([N+](=O)[O-])cccc2c1=O (stereo not given) | 60.6% | 56% | 4.18 (≈ 1.56 µg/mL) | 47.6%
CCOC(=O)C1=C(C(F)(F)F)NC(=O)NC1c1coc2ccc(-c3ccccc3)cc2c1=O (stereo not given) | 28.6% | 10.7% | 3.39 (≈ 1.55 µg/mL) | 31.3%
CCOC(=O)C1=C(C(F)(F)F)NC(=O)NC1c1coc2ccc(C)cc2c1=O (stereo not given) | 33.5% | 45.5% | 7.86 (≈ 3.12 µg/mL) | 37.4%
CCOC(=O)C1=C(C)NC(=O)NC1c1coc2ccc(-c3ccco3)cc2c1=O (stereo not given) | 35.4% | 46.4% | 15.9 (≈ 6.25 µg/mL) | 34.5%
CCOC(=O)C1=C(c2ccccc2)NC(=O)NC1c1coc2ccccc2c1=O (stereo not given) | 5.3% | 15% | 64.1 (≈ 25 µg/mL) | 15.4%
CCOC(=O)C1=C(C)NC(=S)NC1c1coc2ccc(Br)cc2c1=O (stereo not given) | 41.1% | 20% | 29.7 (≈ 12.6 µg/mL) | 43.5%
CCOC(=O)C1=C(C(F)(F)F)NC(=O)NC1c1coc2ccccc2c1=O (stereo not given) | 29.2% | 23.4% | 7.9 (≈ 3.02 µg/mL) | inactive
CCOC(=O)C1=C(C)NC(=S)NC1c1coc2ccccc2c1=O (stereo not given) | 49.3% | 32.7% | 72.7 (≈ 25 µg/mL) | 26.3%
